Patent publication US11666644B2, “Peptide vaccines” (TREOS BIO LIMITED, priority 2018, dated 2023)

What follows are compounds tested on HLA class I (assay: PEPI3+ Test: 9 mer epitopes binding to at least 3 HLA class I of individuals in the Model Population (n=433)). Conditions: B % multiplied by N % (antigen expression frequency in gastric cancers).
Set-up: species or system human
Text: Predicted binding between particular HLA and epitopes (9 mer peptides) was based on the Immune Epitope Database tool for epitope prediction (iedb.org).
The validated HLA-epitope binding prediction process was used to determine all HLA-epitope binding pairs described in the Examples below.
An in silico human trial cohort of 433 subjects with complete 4-digit HLA class I […] genotype (2×HLA-A*xx:xx; 2×HLA-B*xx:xx; 2×HLA-C*xx:xx) and demographic […] information was compiled. This Model Population has subjects with mixed ethnicity having a total of 152 different HLA alleles that are representative for >85% of presently known allele G-groups.
To select immunogenic peptides from the target CTAs, the PEPI3+ Test and the Model Population described in Example 8 were used to identify the 9 mer epitopes (PEPI3+s) that are most frequently presented by at least 3 HLAs of the individuals in the Model Population. These epitopes are referred to herein as “bestEPIs”. An illustrative example of the “PEPI3+ hotspot” analysis and bestEPI identification is shown in FIG. 15 for the PRAME antigen.
The reported expression frequency for each CTA was multiplied by the frequency of the PEPI3+ hotspots in the Model Population to identify the T cell epitopes (9 mers) that will induce a cytotoxic T cell response against gastric cancer antigens in the highest proportion of individuals (Table 20a). 15 mers were then selected encompassing each of the selected 9 mers (Table 20a). The 15 mers were selected to bind to most HLA class II alleles of most subjects. These 15 mers can induce both CTL and T helper responses in the highest proportion of subjects.

Row | B % * N % [%] | Compound
1 | 4 | 30 (HVMNPLETL; PRAME 9mer) [compound 30]
2 | 17 | 12 (FAHPRKLLM; MAGE-A2 9mer) [compound 12]
3 | 9 | 19 (ITMPFSSPM; LAGE-1 9mer) [compound 19]
4 | 16 | 14 (STNALIQPV; CAGE-1 9mer) [compound 14]
5 | 7 | 25 (KAMVQAWPF; PRAME 9mer) [compound 25]
6 | 43 | 1 (KMMKRLMTV; MAGE-C1 9mer) [compound 1]
7 | 28 | 5 (LQYENSIML; HIWI 9mer) [compound 5]
8 | 12 | 16 (FSTTINYTL; MAGE-A2 9mer) [compound 16]
9 | 21 | 7 (FVASINEGM; HIWI 9mer) [compound 7]
10 | 33 | 2 (KMHSLLALM; CAGE-1 9mer) [compound 2]
11 | 5 | 29 (RALAETSYV; MAGE-A1 9mer) [compound 29]
12 | 8 | 24 (NTDNNLAVY; KK-LC-1 9mer) [compound 24]
13 | 10 | 18 (FVQENYLEY; MAGE-A3 9mer) [compound 18]
14 | 29 | 3 (FSYEQDPTL; TSP50 9mer) [compound 3]
15 | 21 | 8 (TTMETQFPV; TSP50 9mer) [compound 8]
16 | 8 | 22 (TSYVKVLEY; MAGE-A1 9mer) [compound 22]
17 | 28 | 4 (YLRLHRHAY; DPPA2 9mer) [compound 4]
18 | 11 | 17 (ILNNFPHSI; KK-LC-1 9mer) [compound 17]
19 | 8 | 21 (YEDHFPLLF; MAGE-A10 9mer) [compound 21]
20 | 21 | 9 (LASNHFLYL; 5T4 9mer) [compound 9]
21 | 7 | 28 (MTFGRLHRI; SSX1 9mer) [compound 28]
22 | 17 | 11 (SSFSSSAPF; 5T4 9mer) [compound 11]
23 | 21 | 10 (FLYLPRDVL; 5T4 9mer) [compound 10]
24 | 17 | 13 (SSNSTALAL; KK-LC-1 9mer) [compound 13]
25 | 7 | 27 (SAFPTTINF; MAGE-A1 9mer) [compound 27]

Row | Compound | B % * N % [%]
26 | 6 (RAIEQLAAM; SURVIVIN 9mer) [compound 6] | 26
27 | 15 (STFKNWPFL; SURVIVIN 9mer) [compound 15] | 15

Each compound was assayed on metastatic ovarian adenocarcinoma (assay: Patient-A clinical outcome and tumor MRI findings (lesion responses)). Conditions: SUM of lesions, Dec. 25, 2016, before PIT vaccine treatment.
Type: in vivo, human
Text: For treatment of Patient-A the 13 peptides were formulated as 4×3 or 4 peptide (POC01/1, POC01/2, POC01/3, POC01/4). One treatment cycle is defined as administration of all 13 peptides within 30 days.
2017-2018: Patient-A received 8 cycles of vaccination as add-on therapy, and lived 17 months (528 days) after start of the treatment. […] They died in October 2018.
Patient's tumor MRI findings (Baseline Apr. 15, 2016) (BL: baseline for tumor response evaluation on FIG. 35)
• Rapid progression in lymph nodes, hepatic, retroperitoneal and thoracic areas, significant pleural fluid and ascites. Initiate Carboplatin, Gemcitabine, Avastin. Sep. […] Nov. […] Remission in hepatic, retroperitoneal area and lymph nodes Apr. 13, 2018: Progression • Complete remission in the thoracic and retroperitoneal regions. Progression in hepatic centers and lymph nodes Jun. […] Minimal regression in hepatic centers and lymph nodes July 2018: Progression October 2018: Patient-A died Partial MRI data for Patient-A is shown in Table 23 and FIG. 35.

Row | Compound | FU2 (% Δ from BL) [%]
28 | O=C(c1cc(Cc2n[nH]c(=O)c3ccccc23)ccc1F)N1CCN(C(=O)C2CC2)CC1 [Olaparib] | −76.0

Same assay, conditions: lesion TL2, Dec. 25, 2016, before PIT vaccine treatment

Row | Compound | FU2 (% Δ from BL) [%]
29 | O=C(c1cc(Cc2n[nH]c(=O)c3ccccc23)ccc1F)N1CCN(C(=O)C2CC2)CC1 [Olaparib] | −100.0

Same assay, conditions: lesion TL2, follow up 1, Olaparib treatment May 2016-January 2017

Row | Compound | FUI (% Δ from BL) [%]
30 | O=C(c1cc(Cc2n[nH]c(=O)c3ccccc23)ccc1F)N1CCN(C(=O)C2CC2)CC1 [Olaparib] | −100.0

Same assay, conditions: lesion TL2, follow-up time point of best response

Row | Compound | Best Response Cycle
31 | O=C(c1cc(Cc2n[nH]c(=O)c3ccccc23)ccc1F)N1CCN(C(=O)C2CC2)CC1 [Olaparib] | FU1

Same assay, conditions: lesion TL4, Dec. 25, 2016, before PIT vaccine treatment

Row | Compound | FU2 (% Δ from BL) [%]
32 | O=C(c1cc(Cc2n[nH]c(=O)c3ccccc23)ccc1F)N1CCN(C(=O)C2CC2)CC1 [Olaparib] | −100.0

Same assay, conditions: lesion TL4, follow-up time point of best response

Row | Compound | Best Response Cycle
33 | O=C(c1cc(Cc2n[nH]c(=O)c3ccccc23)ccc1F)N1CCN(C(=O)C2CC2)CC1 [Olaparib] | FU2

What follows are compounds tested on HLA class I (assay: PEPI3+ Test: 9 mer epitopes binding to at least 3 HLA class I of individuals in the Model Population (n=433)). Conditions: N % (antigen expression frequency in lung cancers) multiplied by B %.
Set-up: species or system human

Row | N % * B % [%] | Compound
34 | 14 | 100 (HVMNPLETL; PRAME 9mer) [compound 100]
35 | 17 | 95 (FVIDSFEEL; NALP4 9mer) [compound 95]
36 | 13 | 102 (LLRHVMNPL; PRAME 9mer) [compound 102]
37 | 9 | 115 (YLRLHRHAY; DPPA2 9mer) [compound 115]
38 | 10 | 109 (MASESLSVM; MAGE-C2 9mer) [compound 109]
39 | 15 | 97 (FAHPRKLLM; MAGE-A2 9mer) [compound 97]
40 | 11 | 106 (SVMDLVGSI; LDHC 9mer) [compound 106]
41 | 7 | 117 (SSNSTALAL; KK-LC-1 9mer) [compound 117]
42 | 13 | 101 (FQDFFPVIF; MAGE-A12 9mer) [compound 101]
43 | 28 | 90 (FAADVRLMF; BRDT 9mer) [compound 90]
44 | 13 | 103 (KMMKRLMTV; DPPA2 9mer) [compound 103]
45 | 9 | SEQ ID NO: 111: 9 mer bestEPI of MAGE-C2 within 15 mer SEQ ID NO: 141; printed 'ill' (SVMSSNVSF; MAGE-C2 9mer)
46 | 12 | 104 (FVLANGHIL; NY-SAR-35 9mer) [compound 104]
47 | 23 | 91 (KAMVQAWPF; PRAME 9mer) [compound 91]
48 | 21 | 92 (FSWPFQRPV; BRDT 9mer) [compound 92]
49 | 7 | 118 (FSTSSSLIL; MAGE-C2 9mer) [compound 118]
50 | 11 | 105 (MLAKKHFSY; BRDT 9mer) [compound 105]
51 | 5 | 119 (RALAETSYV; MAGE-A1 9mer) [compound 119]
52 | 11 | 107 (MMDLQHGSL; LDHC 9mer) [compound 107]
53 | 10 | 110 (FVYGEPREL; MAGE-C2 9mer) [compound 110]
54 | 18 | 94 (RAMEAFNLV; NALP4 9mer) [compound 94]
55 | 19 | 93 (YSSFVFNLF; NALP4 9mer) [compound 93]
56 | 14 | 99 (YIAQFTSQF; PRAME 9mer) [compound 99]
57 | 9 | 112 (FVQENYLEY; MAGE-A3 9mer) [compound 112]
58 | 10 | 108 (FSTTINYTL; MAGE-A2 9mer) [compound 108]

Row | Compound | N % * B % [%]
59 | 98 (RAIEQLAAM; SURVIVIN 9mer) [compound 98] | 15
60 | 114 (STFKNWPFL; SURVIVIN 9mer) [compound 114] | 9
